Data published in patent publication US9040261B2, “Compounds as L-cystine crystallization inhibitors and uses thereof” (NEW YORK UNIVERSITY, priority 2009, dated 2015).
Entries after “also recorded” stand apart in the source; their conditions may differ.

Test: Real time in situ AFM step velocity measurements, static conditions
Procedure: A Digital Instruments (Santa Barbara, Calif.) Nanoscope IIIa Multimode system was used for topographical and lattice imaging. All measurements were performed in contact mode using Veeco NP_B Si3N4 cantilever tips with a spring constant of 0.12N/m (triangular, 196 μm length, 41 μm width) on a glass cantilever holder, and a liquid cell was created for in situ step velocity measurements. All L-cystine crystals for AFM measurements were prepared by method 1. Crystals were transferred onto an AFM specimen disk coated with partially cured (1 hr) UV-curable optical cement (Type SK-9, EMS Acquisition Corp.) by gently pressing the disk against hexagonal platelets or L-cystine needles isolated by filtration (Whatman Nuclepore membrane, 8 μm). The (0001) face of hexagonal platelets was exposed normal to the disk for AFM analysis with growth occurring along equivalent {1010} faces in the lateral directions, while the sides of L-cystine needles were exposed normal to the disc. The partially cured polymer with adhered crystals was completely cured by additional UV radiation (2 hrs) prior to analysis. Measurements of individual step heights for hexagonal L-cystine crystals were acquired in air (contact mode) at a scan rate of 1.00 Hz and 256 samples per line over a 15×15 μm^2 surface area. Integral and proportional gains were set to the highest possible values without obtaining feedback. Four hexagonal crystals (5 areas per crystal) were analyzed for statistical step height distributions, which were calculated from >10^3 individual steps. Lattice-resolved images of crystal surfaces were acquired in water (contact mode) using a scan rate of 112 Hz over a 12×12 nm^2 area.
Real time in situ step velocity measurements of L-cystine growth were assessed along six structurally-equivalent {1010} faces of the hexagonal structure. A liquid cell was created with the glass cantilever tip holder, and working solutions were injected through a 1-mL syringe. Prior to injecting the growth medium (i.e. supersaturated L-cystine solution), crystals were etched with deionized water in the fluid cell for one hour to remove amorphous deposits or impurities that may be present on the surface. Supersaturated solutions (0.5 g/L) were generated by adding L-cystine to deionized water, boiling the solution on a heating mantle for 20 min to completely dissolve the solute, and allowing the solution to cool for 20 min on the heating mantle before transferring the solution (via syringe) to the AFM fluid cell. […]
The effect of additives on crystal growth rates was investigated. […] For each measurement, growth was first assessed in the absence of additive, then in the presence of additive on the identical area of the crystal surface to analyze relative changes in step velocity. […]

Question: Which “advancement of higher {1010} steps” value (5.0 g/L CDME, 0.5 g/L L-cystine, step heights >0.6 nm, larger than 1 nm, Dihydrochloride) does the source give for COC(=O)[C@@H](N)CSSC[C@H](N)C(=O)OC.Cl.Cl [CDME, Cystine Dimethyl Ester Dihydrochloride] here?
Answer: Its value is “suppresses; also recorded: completely suppressed”.

Question: And the “Step velocity of 1-nm steps” value (large excess of CDME (5 g/L), 29 nm/min in the absence of additive)?
Answer: The value was 7 nm/min.
